Source: patent US7115612B2, “Arylsulfonamides as antiviral agents” (Bayer Aktiengesellschaft, priority 2001, dated 2006)

How the values were obtained:
[1] = Cytotoxicity on HELF cells in the anti-HCMV cytopathogenicity test; format: cell-based; details: human lung fibroblasts (HELF cells), 6 days incubation, visual evaluation
Method: (§1) The test compounds were employed as 50 millimolar (mM) solutions in dimethyl sulphoxide (DMSO). Ganciclovir, foscarnet and cidofovir served as reference compounds. Following the addition of in each case 2 μl of the 50, 5, 0.5 and 0.05 mM DMSO stock solutions to in each case 98μ of cell culture medium in row […], in duplicate determinations, 1:2 dilutions with in each case 50 μl of medium were prepared up to row 11 of the 96-well plate. The wells in rows 1 and 12 each contained 50 μl of medium. 150 μl of a suspension of 1×10^4 cells (human lung fibroblasts [HELF]) (row 1=cell control) or, in rows 2-12, a mixture of HCMV-infected and non-infected HELF cells (M.O.I.=0.001-0.002), i.e. 1-2 infected cells per 1000 non-infected cells, were then pipetted into each of the wells. Row 12 (without substance) served as virus control. The final test concentrations were 250-0.0005 μM. The plates were incubated at 37° C./5% CO2 for 6 days, i.e. until all cells in the virus controls had been infected (100% cytopathogenic effect [CPE]). The wells were then fixed and stained by adding a mixture of Formalin and Giemsa Stain (30 minutes), washed with doubly distilled water and dried in a drying cabinet at 50° C. The plates were then evaluated visually using an overhead microscope (plaque multiplier from Technomara). From the test plates, the following data were determined: CC50 (HELF)=substance concentration in μM at which, compared to the untreated cell control, no visible cytostatic effects on the cells were noticeable;

[2] = Cytotoxicity on 3T3 cells in the anti-MCMV cytopathogenicity test; format: cell-based; details: mouse, 3T3 mouse cells, 5 days incubation
Method: (§2) The test compounds were employed as 50 millimolar (mM) solutions in dimethyl sulphoxide (DMSO). Ganciclovir, foscarnet and cidofovir served as reference compounds. Following the addition of in each case 2 μl of the 50, 5, 0.5 and 0.05 mM DMSO stock solutions to in each case 98μ of cell culture medium in row 2 A-H, in duplicate determinations, 1:2 dilutions with in each case 50 μl of medium were prepared up to row 11 of the 96-well plate. The wells in rows 1 and 12 each contained 50 μl of medium. 150 μl of a suspension of 1×10^4 cells (human lung fibroblasts [HELF]) (row 1=cell control) or, in rows 2–12, a mixture of HCMV-infected and non-infected HELF cells (M.O.I.=0.001–0.002), i.e. 1–2 infected cells per 1000 non-infected cells, were then pipetted into each of the wells. Row 12 (without substance) served as virus control. The final test concentrations were 250–0.0005 μM. The plates were incubated at 37° C./5% CO2 for 6 days, i.e. until all cells in the virus controls had been infected (100% cytopathogenic effect [CPE]). The wells were then fixed and stained by adding a mixture of Formalin and Giemsa Stain (30 minutes), washed with doubly distilled water and dried in a drying cabinet at 50° C. The plates were then evaluated visually using an overhead microscope (plaque multiplier from Technomara).
(§3) CC50 (HELF)=substance concentration in μM at which, compared to the untreated cell control, no visible cytostatic effects on the cells were noticeable;
(§4) Compared to the process described above for HCMV, the anti-MCMV test was carried out with the following changes: a cell-free virus suspension was mixed with a concentrated cell suspension (3T3 mouse cells) and incubated for 15 minutes for adsorption of the viruses, and the suspension was then diluted with medium to 1.3×10^5 cells/ml with a final multiplicity of infection (M.O.I.) of from 0.05–0.1, and in each case 150 μl were dispensed into the wells. The incubation time was 5 days.

MCMV = assay: Anti-MCMV cytopathogenicity test; format: cell-based, murine cytomegalovirus; details: for EC50: Murid betaherpesvirus 1, 120 h, MCMV-infected 3T3 mouse cells, M.O.I. 0.05–0.1, 5 days; for SI MCMV: selectivity index, 3T3 CC50 / MCMV EC50
Method: Anti-HCMV (Anti-Human Cytomegalovirus) and anti-MCMV (Anti-Murine Cytomegalovirus) cytopathogenicity tests:
as §2, §4

HCMV = assay: Anti-HCMV cytopathogenicity test; format: cell-based, human cytomegalovirus; details: for EC50: Human betaherpesvirus 5, 144 h, inhibition of CPE by 50% in HCMV-infected HELF cells, M.O.I. 0.001–0.002, 6 days; for SI HCMV: selectivity index = CC50 (HELF)/EC50 (HCMV)
Method: Anti-HCMV (Anti-Human Cytomegalovirus) and anti-MCMV (Anti-Murine Cytomegalovirus) cytopathogenicity tests: The test compounds were employed as 50 millimolar (mM) solutions in dimethyl sulphoxide (DMSO). Ganciclovir, foscarnet and cidofovir served as reference compounds. Following the addition of in each case 2 μl of the 50, 5, 0.5 and 0.05 mM DMSO stock solutions to in each case 98μ of cell culture medium in row […], in duplicate determinations, 1:2 dilutions with in each case 50 μl of medium were prepared up to row 11 of the 96-well plate. The wells in rows 1 and 12 each contained 50 μl of medium. 150 μl of a suspension of 1×10^4 cells (human lung fibroblasts [HELF]) (row 1=cell control) or, in rows 2-12, a mixture of HCMV-infected and non-infected HELF cells (M.O.I.=0.001-0.002), i.e. 1-2 infected cells per 1000 non-infected cells, were then pipetted into each of the wells. Row 12 (without substance) served as virus control. The final test concentrations were 250-0.0005 μM. The plates were incubated at 37° C./5% CO2 for 6 days, i.e. until all cells in the virus controls had been infected (100% cytopathogenic effect [CPE]). The wells were then fixed and stained by adding a mixture of Formalin and Giemsa Stain (30 minutes), washed with doubly distilled water and dried in a drying cabinet at 50° C. The plates were then evaluated visually using an overhead microscope (plaque multiplier from Technomara). From the test plates, the following data were determined: EC50 (HCMV)=substance concentration in μM which inhibits the CPE (cytopathic effect) by 50% compared to the untreated virus control; SI (selectivity index)=CC50 (HELF)/EC50 (HCMV).

[3] = system: human lung fibroblasts [HELF]; assay: Cytotoxicity on HELF cells in the anti-HCMV cytopathogenicity test; format: cell-based; details: 6 days incubation, visual evaluation
Method: as §1

3T3 mouse cells = assay: Cytotoxicity on 3T3 cells in the anti-MCMV cytopathogenicity test; format: cell-based; details: 5 days incubation
Method: as §2, §3, §4

SMILES: CC1(C(=O)Nc2cccc(NS(=O)(=O)c3ccc(-c4noc(-c5ccccn5)n4)cc3)c2)CC1 [Example 3, 1-Methyl-N-{3-[({4-[5-(2-pyridinyl)-1,2,4-oxadiazol-3-yl]phenyl}sulphonyl)-amino]phenyl}cyclopropanecarboxamide]
- CC50 at 6 days [1]: < 140000 nM
- CC50 at 5 days [2]: 23000 nM
- EC50 (MCMV): 8 nM
- SI MCMV (MCMV): 2875
- melting point: 202 °C
- EC50 (HCMV): 18 nM
- SI HCMV (HCMV): <7778

SMILES: Cc1cc(-c2nc(-c3ccc(S(=O)(=O)Nc4cccc(NC(=O)C5(C)CC5)c4)cc3)no2)n[nH]1 [Example 9, 1-Methyl-N-{3-[({4-[5-(5-methyl-1H-pyrazol-3-yl)-1,2,4-oxadiazol-3-yl]phenyl}-sulphonyl)amino]phenyl}cyclopropanecarboxamide]
- CC50 [3]: 39000 nM
- CC50 (3T3 mouse cells): 4000 nM
- EC50 (MCMV): 68 nM
- SI MCMV (MCMV): 59
- EC50 (HCMV): 18 nM
- SI HCMV (HCMV): 2167

SMILES: CC(C)(CF)C(=O)Nc1cccc(NS(=O)(=O)c2ccc(-c3noc(-c4ccccn4)n3)cc2)c1 [Example 1, 3-Fluoro-2,2-dimethyl-N-{3-[({4-[5-(2-pyridinyl)-1,2,4-oxadiazol-3-yl]phenyl}-sulphonyl)amino]phenyl}propanamide]
- CC50 at 6 days [1]: 110000 nM
- CC50 at 5 days [2]: 33000 nM
- EC50 (MCMV): 19 nM
- SI MCMV (MCMV): 1737
- melting point: 178.9 °C
- EC50 (HCMV): 55 nM
- SI HCMV (HCMV): 2000

SMILES: Cc1cccc(-c2nc(-c3ccc(S(=O)(=O)Nc4cccc(NC(=O)C5(C)CC5)c4)cc3)no2)n1 [Example 5, 1-Methyl-N-{3-[({4-[5-(6-methyl-2-pyridinyl)-1,2,4-oxadiazol-3-yl]phenyl}-sulphonyl)amino]phenyl}cyclopropanecarboxamide]
- CC50 at 6 days [1]: > 16000 nM
- CC50 at 5 days [2]: > 31000 nM
- EC50 (MCMV): 14 nM
- SI MCMV (MCMV): >2214
- EC50 (HCMV): 16 nM
- SI HCMV (HCMV): >1000
